Reference: patent US11420910B2, “Methods for low temperature fluorine-18 radiolabeling of biomolecules” (KATHOLIEKE UNIVERSITEIT LEUVEN, priority 2014, dated 2022)
Entries after “also recorded” stand apart in the source; their conditions may differ.

Tests used:
[1] = Biodistribution of Al18F-complexes and {Al18F}2+ in healthy male NMRI mice; format: in vivo; details: for uptake in blood / uptake in bone / uptake in intestines / uptake in kidneys / uptake in liver / uptake in urinary bladder: NMRI mice, tail vein
Experimental: (§1) Quantification of radioactivity during biodistribution studies was performed using an automated gamma counter equipped with a 3-inch NaI(TI) well crystal coupled to a multichannel analyzer, mounted in a sample changer (Perkin Elmer 1480 Wizard 3q). Counts were corrected for background radiation, physical decay and counter dead time.
(§2) The biodistribution of the [Al^18F]-L3 complex and {Al^18F}^2+ was determined in healthy male Naval Medical Research Institute (NMRI) mice (body weight: 30-40 g) at 10 and 60 min post injection (p.i.) (n=4/time point). Mice were injected with the [Al^18F]-L3 complex (about 1 MBq) or {Al^18F}^2+ (5.55 MBq) via a tail vein under anesthesia (2.5% isoflurane in O2 at 1 L/min flow rate) and sacrificed by decapitation at above specified time points. Blood and major organs were collected in tared tubes and weighed. The radioactivity in blood, organs and other body parts was counted using an automated γ-counter. For the calculation of total radioactivity in blood, bone and muscle, masses were assumed to be, respectively, 7, 12 and 40% of the total body mass.^20, 21
as §1, with “Nai(TI)” for “NaI(TI)”
as §2, with “[Al^18F]-L26” for “[Al^18F]-L3”, “(n=3/time point for 10 min p.i. and n=4/time point for 60 min p.i.).” for “(n=4/time point).”, “mass.^20,21” for “mass.^20, 21”

[2] = Stability tests of Al18F-complexes in PBS (0.1 M, pH 7) at 37° C., Example 26; format: physicochemical; details: PBS 0.1 M pH 7, 37° C.
Experimental: (§3) 400 μl of each purified [Al^18F]-complex solution was added to 1 mL of PBS and/or 1 mL of rat serum. […] Finally the supernatant was analysed using iTLC-SG.

[3] = Stability tests of Al18F-complexes in different buffers ranging from pH 2 to 8 (room temperature, iTLC-SG); format: physicochemical; details: for RCP: after 60 min
Experimental: (§4) 200 μl of the purified Al^18F-L3 solution was added to 1 mL of sodium phosphate buffer (0.1 M, pH 2), sodium phosphate buffer (0.1 M, pH 3), sodium acetate buffer (0.1 M, pH 4), sodium acetate buffer (0.1 M, pH 5), sodium acetate buffer (0.1 M, pH 6), PBS buffer (0.1 M, pH 7) or Tris-HCl buffer (0.1 M, pH 8). These mixtures were incubated at room temperature and analyzed by iTLC-SG at 30 and 60 min after the start of the incubation.
as §4, with “Al^18F-L26” for “Al^18F-L3”

[4] = Stability tests of Al18F-complexes in rat serum at 37° C., Example 26; format: in vitro ADME
Experimental: as §3

[5] = Stability test on the semi-automated [Al18F]-L3 batch at room temperature; format: physicochemical; details: incubation at room temperature for 2 hours
Experimental: To assess the efficiency of the labeling agent in a more realistic setting, the process for radiosynthesis and purification of [Al^18F]-L3 was performed semi-automatically. [^18F]fluoride was produced and trapped on a SepPak™ Light Accel plus QMA anion as described previously. The [^18F]F^− was eluted from the cartridge with an aqueous solution of sodium chloride 0.9% (0.2 mL) and added to 22.5 μl of 20 mM aluminum chloride (AlCl3) in sodium acetate buffer (0.1 M, pH 4). The solution was incubated at RT for 10 min to form {Al^18F}^2+. A solution of H3L3 (0.5 mL, 1.5 mM) was added and the reactor was heated at 40° C. for 12 min. After dilution with water (0.5 mL), the crude reaction mixture was injected onto a semi-preparative HPLC column (XBridge C18, 5 μm, 4.6 mm×150 mm, Waters) eluted with EtOH: sodium acetate 0.05M pH 5.5, 8:92 (v/v) at a flow rate of 1 mL/min. UV detection of the eluate was performed at 254 nm. Identification of the [Al^18F]-L3 complex was done by radio-LC-HRMS (Acquity UPLC BEH C18, 1.7 μm, 2.1 mm×150 mm, Waters. 0.6 mL/min A: H2O B: ACN, 0-2 min 5% B, 2 to 8 min 5% B to 95% B, 8-10 min 95% B, 10 to 12 min 95% B to 5% B).
H3L3 was labeled with {Al^18F}^2+ in a non-optimized yield of 74% (12 min 40° C., pH 4). The batch (4.63 GBq) was produced with a RCP higher than 98% in 35 min starting after elution of fluorine-18. […]

SMILES: O=C1CN(Cc2ccccc2)CCN2CC(=O)[O][Al-]([18F])([O]1)[O]c1ccccc1C2 (stereo not drawn) [Al^18F-L3]
- uptake in blood ([1]; 10 min p.i.): 1.1 % ID
- uptake in bone ([1]; 10 min p.i.): 1.6 % ID
- uptake in intestines ([1]; 10 min p.i.): 25.17 % ID
- uptake in kidneys ([1]; 10 min p.i.): 2.2 % ID
- uptake in liver ([1]; 10 min p.i.): 47.83 % ID
- uptake in urinary bladder ([1]; 10 min p.i.): 13.2 % ID
- uptake in blood ([1]; 60 min p.i.): 0.3 % ID
- uptake in bone ([1]; 60 min p.i.): 2.5 % ID
- uptake in intestines ([1]; 60 min p.i.): 59.48 % ID
- uptake in kidneys ([1]; 60 min p.i.): 1.0 % ID
- uptake in liver ([1]; 60 min p.i.): 13.53 % ID
- uptake in urinary bladder ([1]; 60 min p.i.): 17.8 % ID
- route of clearance (in words) ([1]; mice, 60 min p.i.): hepatobiliary clearance
- in vivo stability judged from bone uptake (in words) ([1]; mice, biodistribution): high stability
- stability in PBS (in words) [2]: comparable to that of Al^18F-NODA-benzyl up to 60 minutes; also recorded: stability comparable to that of the previously reported Al^18F-NODA
- RCP ([2]; 120 min): 80%
- RCP ([2]; 240 min): 70%
- stability at different pH (in words) ([3]; buffers pH 2 to 8, room temperature, 30 and 60 min): not stable at pH 2, pH 3 and pH 4; also recorded: stable for at least 60 min in the pH range from 5 to 8
- RCP ([3]; sodium acetate buffer 0.1 M pH 4, room temperature): 75%
- RCP ([3]; sodium phosphate buffer 0.1 M pH 2, room temperature): 58%
- RCP ([3]; sodium phosphate buffer 0.1 M pH 3, room temperature): 68%
- stability in rat serum (in words) [4]: good stability in rat serum; also recorded: stability comparable to that of the previously reported Al^18F-NODA
- RCP ([4]; 240 min): 66%
- [Al18F]-L3 still intact [5]: more than 95%
